Reference: ChEMBL document CHEMBL1149361, “Synthesis, biochemical evaluation and rationalisation of the inhibitory activity of a range of 4-substituted phenyl alkyl imidazole-based inhibitors of the enzyme complex 17alpha-hydroxylase/17,20-lyase (P450(17alpha))” (Bioorg Med Chem Lett, 2006)

Legend:
[1] = molecular target: T1, Steroid 17-alpha-hydroxylase/17,20 lyase (Rattus norvegicus, UniProt P11715); assay: Inhibition of rat testis 17-alpha-hydroxylase component of P450-17alpha at 10 uM
T1 sequence (P11715 whole entry): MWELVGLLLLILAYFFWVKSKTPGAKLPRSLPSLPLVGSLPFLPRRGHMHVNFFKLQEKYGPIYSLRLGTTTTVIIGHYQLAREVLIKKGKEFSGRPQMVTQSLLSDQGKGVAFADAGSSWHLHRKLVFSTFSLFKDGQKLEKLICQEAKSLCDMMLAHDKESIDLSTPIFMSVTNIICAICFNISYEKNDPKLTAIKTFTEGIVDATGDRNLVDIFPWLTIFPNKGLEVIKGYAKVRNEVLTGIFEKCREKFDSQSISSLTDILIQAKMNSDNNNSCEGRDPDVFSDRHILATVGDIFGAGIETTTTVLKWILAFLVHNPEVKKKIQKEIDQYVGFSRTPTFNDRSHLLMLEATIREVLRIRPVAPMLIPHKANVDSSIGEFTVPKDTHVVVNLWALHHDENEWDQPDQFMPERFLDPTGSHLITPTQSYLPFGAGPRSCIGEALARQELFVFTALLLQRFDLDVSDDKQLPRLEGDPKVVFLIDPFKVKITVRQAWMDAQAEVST

[2] = molecular target: T1, Steroid 17-alpha-hydroxylase/17,20 lyase; assay: Inhibition of rat testis 17,20 lyase component of P450-17alpha at 10 uM
[3] = molecular target: T1, Steroid 17-alpha-hydroxylase/17,20 lyase; assay: Inhibition of rat testis 17-alpha-hydroxylase component of P450-17alpha
[4] = molecular target: T1, Steroid 17-alpha-hydroxylase/17,20 lyase; assay: Inhibition of rat testis 17,20 lyase component of P450-17alpha

| SMILES | inhibition at 10 µM [1] | inhibition at 10 µM [2] | IC50 [3] | IC50 [4] |
| --- | --- | --- | --- | --- |
| c1ccc(CCCn2ccnc2)cc1 | 23.4% | 40% | 30.9 µM | 6.14 µM |
| Clc1ccc(CCn2ccnc2)cc1 | 28.4% | 57.4% | 49.6 µM | – |
| CC(=O)N1CCN(c2ccc(OCC3COC(Cn4ccnc4)(c4ccc(Cl)cc4Cl)O3)cc2)CC1 (stereo not given) [KETOCONAZOLE] | 61.5% | 78.7% | – | – |
| Fc1ccc(CCCn2ccnc2)cc1 | 40.8% | 73.2% | 27.8 µM | 1.96 µM |
| Clc1ccc(Cn2ccnc2)cc1 | 45.7% | 73.7% | 29.8 µM | 4.94 µM |
| Brc1ccc(CCn2ccnc2)cc1 | 37.5% | 61.5% | 30.7 µM | – |
| c1ccc(CCn2ccnc2)cc1 | 10.6% | 6.36% | – | – |
| Brc1ccc(CCCn2ccnc2)cc1 | 70.2% | 86.3% | 2.95 µM | 0.33 µM |
| Fc1ccc(CCn2ccnc2)cc1 | 22.5% | 45.1% | 120 µM | – |
| c1ccc(Cn2ccnc2)cc1 | 13.5% | 12.6% | 154 µM | 50.9 µM |
| Brc1ccc(Cn2ccnc2)cc1 | 49.3% | 76.2% | 16.6 µM | 2.85 µM |
| Clc1ccc(CCCn2ccnc2)cc1 | 71% | 80.8% | 5.85 µM | 0.55 µM |
| Fc1ccc(Cn2ccnc2)cc1 | 20.5% | 51% | 96.5 µM | 11.3 µM |
